Assay results as given in PubChem BioAssay AID248 (DTP/NCI, 2004).
Values joined by “and” are separate entries in the source; they are usually repeats but may differ in a detail not shown here. Identical values can stand only once. Inconclusive results and toxic doses are left out. Cut-off read from the data, not from the text of the source: active = T/C of 150% or more; inactive = T/C below 125%. Peptide text beside a SMILES is read from it. * marks the point of attachment. Trt = c1ccc(C(c2ccccc2)(c2ccccc2)*)cc1

Tested on: L1210 leukemia ip in BDF1 mice, survival T/C
Test: NCI In Vivo Anticancer Drug Screen. Data for tumor model L1210 Leukemia (intraperitoneal) in B6D2F1 (BDF1) mice
Conditions: endpoint: mean survival time, higher = longer survival
In short: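 Survival endpoint. Drug-treated group vs vehicle group, expressed as T divided by C. Tumor passaged by transplantation.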

[1] = dose: 50.0 mg/kg/injection, schedule: Q01DX009 (ip), vehicle: saline
[2] = dose: 100.0 mg/kg/injection, schedule: Q01DX009 (ip), vehicle: saline
[3] = dose: 200.0 mg/kg/injection, schedule: Q01DX009 (ip), vehicle: saline
[4] = dose: 100.0 mg/kg/injection, schedule: Q01DX001 (ip), vehicle: carboxymethylcellulose (CMC)
[5] = dose: 200.0 mg/kg/injection, schedule: Q01DX001 (ip), vehicle: carboxymethylcellulose (CMC)
[6] = dose: 400.0 mg/kg/injection, schedule: Q01DX001 (ip), vehicle: carboxymethylcellulose (CMC)
[7] = dose: 100.0 mg/kg/injection, schedule: Q01DX001 (ip), vehicle: saline
[8] = dose: 100.0 mg/kg/injection, schedule: Q04DX003 (ip), vehicle: saline
[9] = dose: 200.0 mg/kg/injection, schedule: Q01DX001 (ip), vehicle: saline
[10] = dose: 400.0 mg/kg/injection, schedule: Q01DX001 (ip), vehicle: saline
[11] = dose: 400.0 mg/kg/injection, schedule: Q04DX003 (ip), vehicle: saline
[12] = dose: 100.0 mg/kg/injection, schedule: Q01DX009 (ip), vehicle: Klucel (hydroxypropylcellulose) (HPC)
[13] = dose: 100.0 mg/kg/injection, schedule: Q04DX003 (ip), vehicle: Klucel (hydroxypropylcellulose) (HPC)
[14] = dose: 200.0 mg/kg/injection, schedule: Q01DX009 (ip), vehicle: Klucel (hydroxypropylcellulose) (HPC)
[15] = dose: 200.0 mg/kg/injection, schedule: Q04DX003 (ip), vehicle: Klucel (hydroxypropylcellulose) (HPC)
[16] = dose: 400.0 mg/kg/injection, schedule: Q01DX009 (ip), vehicle: Klucel (hydroxypropylcellulose) (HPC)
[17] = dose: 400.0 mg/kg/injection, schedule: Q04DX003 (ip), vehicle: Klucel (hydroxypropylcellulose) (HPC)
[18] = dose: 100.0 mg/kg/injection, schedule: Q01DX001 (ip), vehicle: Klucel (hydroxypropylcellulose) (HPC)
[19] = dose: 200.0 mg/kg/injection, schedule: Q01DX001 (ip), vehicle: Klucel (hydroxypropylcellulose) (HPC)
[20] = dose: 400.0 mg/kg/injection, schedule: Q01DX009 (ip), vehicle: saline
[21] = dose: 100.0 mg/kg/injection, schedule: Q04DX002 (ip), vehicle: saline
[22] = dose: 200.0 mg/kg/injection, schedule: Q04DX002 (ip), vehicle: saline
[23] = dose: 100.0 mg/kg/injection, schedule: Q04DX003 (ip), vehicle: saline with Tween-80
[24] = dose: 200.0 mg/kg/injection, schedule: Q04DX003 (ip), vehicle: saline with Tween-80
[25] = dose: 400.0 mg/kg/injection, schedule: Q04DX003 (ip), vehicle: saline with Tween-80

Measured: T/C

O=C1CC(C(=O)O)c2ccccc21 (stereo not given)
inactive: [1] 93 % of control | [2] 90 % of control | [3] 93 % of control

O=C(CCN1CCC(c2ccccc2)CC1)c1ccc(F)cc1
inactive: [4] 106 % of control | [5] 93 % of control

CN(C/C=C/CN(C)P(=S)(N1CC1)N1CC1)P(=S)(N1CC1)N1CC1
inactive: [4] 96 % of control | [5] 93 % of control | [6] 109 % of control

COC1OC(COC(=O)c2ccc([N+](=O)[O-])cc2)C(N(C)C(C)=O)C1OC(=O)c1ccc([N+](=O)[O-])cc1 (stereo not given)
inactive: [4] 93 % of control | [5] 93 % of control | [6] 93 % of control

CCOC(=O)NN1C(=O)c2cccc3c([N+](=O)[O-])ccc(c23)C1=O
inactive: dose: 12.5 mg/kg/injection, schedule: Q01DX009 (ip), vehicle: Klucel (hydroxypropylcellulose) (HPC) 105 % of control | dose: 25.0 mg/kg/injection, schedule: Q01DX009 (ip), vehicle: Klucel (hydroxypropylcellulose) (HPC) 94 % of control | dose: 50.0 mg/kg/injection, schedule: Q01DX009 (ip), vehicle: Klucel (hydroxypropylcellulose) (HPC) 96 % of control

O=NN(CCCl)C(=O)Nc1ncc([N+](=O)[O-])s1
inactive: dose: 8.0 mg/kg/injection, schedule: Q01DX001 (ip), vehicle: other 105 % of control | dose: 16.0 mg/kg/injection, schedule: Q01DX001 (ip), vehicle: other 105 % of control | dose: 31.0 mg/kg/injection, schedule: Q01DX001 (ip), vehicle: other 110 % of control | dose: 62.0 mg/kg/injection, schedule: Q01DX001 (ip), vehicle: other 109 % of control | dose: 125.0 mg/kg/injection, schedule: Q01DX001 (ip), vehicle: other 116 % of control

CN(C)c1ccc(C2NC(c3ccccc3)c3c(ccc4ccccc34)O2)cc1 (stereo not given)
inactive: [7] 92 % of control | [8] 90 % of control | [9] 89 % of control | [10] 89 % of control | [11] 90 % of control

COC1CCC(/C(C#N)=C/C2CCC(N(C)C)CC2)CC1 (stereo not given)
inactive: dose: 100.0 mg/kg/injection, schedule: Q04DX002 (ip), vehicle: saline with Tween-80 95 % of control | dose: 200.0 mg/kg/injection, schedule: Q04DX002 (ip), vehicle: saline with Tween-80 91 % of control | dose: 400.0 mg/kg/injection, schedule: Q04DX002 (ip), vehicle: saline with Tween-80 98 % of control

CCOC(=O)CCC1C(C#N)C2(Cl)C(Cl)=C(Cl)C1(Cl)C2(Cl)Cl (stereo not given)
inactive: [12] 98 % of control | [13] 93 % of control | [14] 98 % of control | [15] 93 % of control | [16] 96 % of control | [17] 92 % of control

COC(OC)c1cc(=O)[nH]c(=S)[nH]1
inactive: dose: 25.0 mg/kg/injection, schedule: Q04DX003 (ip), vehicle: Klucel (hydroxypropylcellulose) (HPC) 100 % of control | dose: 50.0 mg/kg/injection, schedule: Q01DX001 (ip), vehicle: Klucel (hydroxypropylcellulose) (HPC) 111 % of control | dose: 50.0 mg/kg/injection, schedule: Q04DX003 (ip), vehicle: Klucel (hydroxypropylcellulose) (HPC) 91 % of control | [18] 90 % of control | [13] 92 % of control | [19] 98 % of control

Cc1nnc(N(C)C)nc1C
inactive: dose: 100.0 mg/kg/injection, schedule: Q01DX001 (ip), vehicle: saline with Tween-80 98 % of control | dose: 200.0 mg/kg/injection, schedule: Q01DX001 (ip), vehicle: saline with Tween-80 97 % of control | dose: 400.0 mg/kg/injection, schedule: Q01DX001 (ip), vehicle: saline with Tween-80 108 % of control

COC(=O)C(NC(=O)C(N)CSC(c1ccccc1)(c1ccccc1)c1ccccc1)C(C)C (stereo not given) (H-Cys(Trt)-Val-OMe; configuration not given here)
inactive: [1] 104 % of control and 118 % of control | [2] 109 % of control | [20] 104 % of control

COc1ccccc1OC1CCCCC1OS(C)(=O)=O (stereo not given)
inactive: [18] 95 % of control | [12] 95 % of control | [13] 102 % of control | [19] 105 % of control | [14] 101 % of control | [15] 101 % of control | dose: 400.0 mg/kg/injection, schedule: Q01DX001 (ip), vehicle: Klucel (hydroxypropylcellulose) (HPC) 95 % of control | [16] 95 % of control | [17] 95 % of control

O=C1Nc2ccccc2C1=NC1CCCC1
inactive: [7] 93 % of control | [9] 98 % of control | [10] 97 % of control

O=C(O)C(F)(F)F
inactive: dose: 50.0 mg/kg/injection, schedule: Q01DX001 (ip), vehicle: water 112 % of control | dose: 50.0 mg/kg/injection, schedule: Q01DX001 (iv), vehicle: water 116 % of control | [7] 102 % of control | dose: 100.0 mg/kg/injection, schedule: Q01DX001 (iv), vehicle: water 114 % of control | [2] 100 % of control | [21] 96 % of control and 98 % of control | [8] 95 % of control | [9] 104 % of control | [3] 95 % of control and 96 % of control | [22] 94 % of control and 89 % of control | dose: 200.0 mg/kg/injection, schedule: Q04DX003 (ip), vehicle: saline 93 % of control | [10] 98 % of control | [20] 98 % of control and 90 % of control | dose: 400.0 mg/kg/injection, schedule: Q04DX002 (ip), vehicle: saline 93 % of control and 94 % of control | [11] 91 % of control

COc1cc([N+](=O)[O-])ccc1NC(=O)Oc1cc(C)ccc1C(C)C
inactive: [12] 103 % of control | [14] 104 % of control | [16] 104 % of control

CC1(C)N=C(N)N=C(N)N1NC(=O)c1ccc(Cl)cc1
inactive: [23] 100 % of control | [24] 103 % of control

CC(=O)CCSC(C)C
inactive: dose: 50.0 mg/kg/injection, schedule: Q01DX009 (ip), vehicle: saline with Tween-80 89 % of control | dose: 100.0 mg/kg/injection, schedule: Q01DX009 (ip), vehicle: saline with Tween-80 92 % of control | dose: 200.0 mg/kg/injection, schedule: Q01DX009 (ip), vehicle: saline with Tween-80 92 % of control

O=C1c2cscc2C(=O)c2c(Cl)sc(Cl)c21
inactive: dose: 100.0 mg/kg/injection, schedule: Q04DX003 (ip), vehicle: acetone 102 % of control

CC1=C2C3OC(=O)C(C)C3C=CC2(C)C(=O)CC1 (stereo not given)
inactive: [23] 87 % of control | [24] 89 % of control | [25] 89 % of control

Cc1cc(C)c(SC2c3ccccc3-c3ccccc32)c(C)c1
inactive: dose: 75.0 mg/kg/injection, schedule: Q01DX009 (ip), vehicle: saline with Tween-80 95 % of control | dose: 150.0 mg/kg/injection, schedule: Q01DX009 (ip), vehicle: saline with Tween-80 102 % of control | dose: 300.0 mg/kg/injection, schedule: Q01DX009 (ip), vehicle: saline with Tween-80 96 % of control

CC(C)(O)c1cnnn1CCC[CH2][Pb]([c]1ccccc1)([c]1ccccc1)[c]1ccccc1
inactive: dose: 50.0 mg/kg/injection, schedule: Q01DX001 (ip), vehicle: carboxymethylcellulose (CMC) 102 % of control | [4] 105 % of control | [5] 102 % of control | [6] 96 % of control

Cc1ccc(Cl)c(P(=O)(O)O)c1
inactive: [23] 97 % of control | [24] 106 % of control | [25] 104 % of control

OC[CH2][Sb]([Cl])([Cl])([c]1ccccc1)[c]1ccccc1
inactive: dose: 5.0 mg/kg/injection, schedule: Q04DX002 (ip), vehicle: saline with Tween-80 97 % of control | dose: 10.0 mg/kg/injection, schedule: Q04DX002 (ip), vehicle: saline with Tween-80 101 % of control | dose: 20.0 mg/kg/injection, schedule: Q04DX002 (ip), vehicle: saline with Tween-80 101 % of control

CCCCC(=O)N1C(C)CCC1C (stereo not given)
inactive: [21] 105 % of control | [22] 88 % of control

O=NN1CCCCC1
inactive: dose: 50.0 mg/kg/injection, schedule: Q01DX001 (ip), vehicle: saline 93 % of control | [7] 104 % of control | [9] 96 % of control

O=C(O)COc1ccc(Cl)cc1C(=O)O
inactive: [13] 96 % of control | [15] 104 % of control | [17] 101 % of control
